For one test, the target named is heparanase. The following applies: literature value of reference inhibitor 6; read-out: reported IC50; cited from earlier work.
Another test has as its system HT1080 cells. The test can be described thus: Matrigel cell invasion assay, HT1080. The class given is cell-based, human. The following applies: 24 h of treatment; for inhibition at 10 µM: concentration tested 10 µM. As to the method: (§1) Cells were pre-treated with the indicated drug concentrations in complete medium for 24 h. Then, cells were harvested, resuspended in serum-free medium, and transferred (2.5 × 10^4 cells per filter) to the upper chamber of 24-well Transwell plates (Costar, Corning Inc., Corning, NY) previously coated with Growth Factor Reduced Matrigel (BD Biosciences, San Jose, CA). The same drug concentration used for cell pre-treatment was added to both the upper and lower chambers. After 24 h of incubation, cells that invaded the Matrigel were stained with SRB and then counted through a microscope at 40× −100× magnification depending on cell density. Data were expressed as the % inhibition of cell invasion, with respect to cell invasion in the absence of drugs.

The next test has as its system U2OS cells. In words: Matrigel cell invasion assay, U2OS. The following applies: 24 h of treatment; for inhibition at 10 µM: concentration tested 10 µM. The class given is cell-based, human. On the procedure: as §1
Another test deals with U87MG cells. In words: Matrigel cell invasion assay, U87MG. The class given is cell-based, human. The following applies: 24 h of treatment; for inhibition at 10 µM: concentration tested 10 µM. As to the method:
as §1

The subject of test [1] is U2OS (osteosarcoma) cells. In words: proliferation assay (sulforhodamine B), U2OS. The class given is cell-based, human. The following applies: 72 h, range 10–0.2 µM, SRB, read-out: IC50, inhibition of cell proliferation. As to the method:
(§2) HT1080 (fibrosarcoma), U87MG (glioblastoma), and U2OS (osteosarcoma) human cell lines were purchased from the American Type Culture Collection (ATCC; Manassas, VA) and maintained according to the manufacturer’s recommendations. Briefly, HT1080 and U87MG were grown in modified Eagle medium (Thermo Fisher Scientific), while U2OS cells were grown in McCoy’s 5a medium (Thermo Fisher Scientific), all supplemented with 10% FCS (Thermo Fisher Scientific), 100 U/mL penicillin, and 100 μg/mL streptomycin (Thermo Fisher Scientific) and 2 mM L-glutamine (Thermo Fisher Scientific). Cell lines were maintained at 37 °C with a humidified 5% CO2 atmosphere.
(§3) HT1080, U87MG, and U2OS exponentially growing cells were seeded into 96-well plates and then, 24 h later, treated for 72 h with several dilutions of test compounds in the range 10 − 0.2 μM. Inhibition of cell proliferation was measured by means of a classical sulforhodamine B (SRB) assay[40] performed in triplicate.

For test [2], the system named is U87MG (glioblastoma) cells. The test can be described thus: proliferation assay (sulforhodamine B), U87MG. The class given is cell-based, human. The following applies: 72 h, range 10–0.2 µM, SRB, read-out: IC50, inhibition of cell proliferation. As to the method: as §2, §3
The target in another test is human GS3 heparanase (Homo sapiens, UniProt Q9Y251). The test can be described thus: fondaparinux assay of heparanase enzymatic activity (WST-1 colorimetric). The class given is biochemical. The following applies: for IC50: read-out: IC50 (µM) ± SD, heparanase inhibitory activity. The source says:
To determine the activity of the heparanase inhibitors, a homogeneous assay based on the cleavage of the synthetic heparin oligosaccharide fondaparinux (Arixtra; Aspen) was used. The assay measures colorimetrically the appearance of the disaccharide product of heparanase-catalysed fondaparinux cleavage using the tetrazolium salt WST-1. The assay was essentially performed as described[39] with minor modifications. Briefly, Nunc 96-well (Thermo Fisher Scientific) plates were pre-treated with a solution of 4% BSA (bovine serum albumin, Sigma-Aldrich) in phosphate-buffered saline containing 0.05% Tween 20 (PBST), for 2 h at 37 °C, and then washed three times with PBST. […] The IC50 value for each compound was calculated by GraphPad software. Finally, the measurements were corrected by subtracting both the reagent background and the inner absorbance value of test compound.
Supporting Table S1 reports the structures of the fifty-five compounds purchased and tested, with information, for each compound, on the database from which it was retrieved, the reference inhibitor used to retrieve it and the similarity value with the reference inhibitor.
Background: Formazan colour is commonly taken as a measure of viable cells.

For test [3], the system named is HT1080 (fibrosarcoma) cells. The test can be described thus: proliferation assay (sulforhodamine B), HT1080. The class given is cell-based, human. The following applies: HT1080, 72 h, range 10–0.2 µM, SRB, read-out: IC50, inhibition of cell proliferation. On the procedure: as §2, §3
Test [4] concerns FGF-1, FGF-2, VEGF, MMP-9 and heparanase mRNA in HT1080 cells. In words: real-time qPCR of angiogenesis-related genes and heparanase in HT1080 cells. The following applies: 1 µM, 24 h, q-PCR. The class given is cell-based, human. On the procedure:
Total RNA was extracted from HT1080 cells, upon 24 h of treatment with test compounds (1 µM) and then retrotranscribed using the iScript Advanced cDNA Synthesis Kit for RT-qPCR (Bio-Rad Laboratories Inc., Hercules, CA) according to the manufacturer’s instructions. Real time quantitative PCR analysis was performed using SsoAdvanced Universal SYBR Green Supermix (Bio- Rad Laboratories Inc., Hercules, CA) and the following PrimePCR SYBR Green Assays: qHsaCID0015228 (heparanase), qHsaCED0002206 (FGF-1), qHsaCID0015510 (FGF-2), qHsaCID0011597 (MMP-9), and qHsaCED0043454 (VEGF-A) (Bio-Rad Laboratories Inc., Hercules, CA). The 7900HT Sequence Detection System instrument and software (Applied Biosystems) were used to quantify the relative expression of the target genes. Tests were performed in triplicate.
(In qPCR the cycle at which signal appears reflects the starting amount.)

Setting [5] is: fondaparinux assay on human GS3 heparanase, mean of triplicates.

Structures are written as SMILES. Several values for one entry are separate records, joined by “and”; a condition that tells them apart may be missing. Equal entries are not always repeated. Where two headings read alike, the source gives them in different places.

Consider nine compounds from PMC7534336, “New classes of potent heparanase inhibitors from ligand-based virtual screening” (Journal of Enzyme Inhibition and Medicinal Chemistry, 2020).

Usually inhibition stands for how much of the control response was suppressed. A low value points to a response near the control.

human GS3 heparanase, sequence (Q9Y251 other isoform, or with tags, fused parts or gaps): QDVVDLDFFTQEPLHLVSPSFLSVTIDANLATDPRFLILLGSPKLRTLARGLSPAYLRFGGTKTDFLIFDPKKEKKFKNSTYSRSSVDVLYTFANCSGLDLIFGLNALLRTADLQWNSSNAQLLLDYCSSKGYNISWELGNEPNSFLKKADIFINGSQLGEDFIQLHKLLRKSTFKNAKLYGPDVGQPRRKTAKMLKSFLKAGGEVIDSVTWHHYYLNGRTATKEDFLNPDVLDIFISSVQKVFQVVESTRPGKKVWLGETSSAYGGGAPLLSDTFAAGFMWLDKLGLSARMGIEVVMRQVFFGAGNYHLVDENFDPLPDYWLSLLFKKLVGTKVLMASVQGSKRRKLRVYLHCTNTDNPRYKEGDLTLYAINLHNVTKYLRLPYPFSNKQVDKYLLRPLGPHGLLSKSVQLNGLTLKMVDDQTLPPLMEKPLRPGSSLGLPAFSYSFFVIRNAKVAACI

On to `O=C(O)Cc1ccc2oc(-c3ccc(NC(=O)Nc4ccc(-c5nc6cc(CC(=O)O)ccc6o5)cc4F)c(F)c3)nc2c1` [Compound 6], for which the IC50 at heparanase was 0.18 µM.
For the compound `COc1ccc(C(=O)Nc2ccc(CNc3ccc(-c4nc5ccccc5[nH]4)cc3)cc2)cc1Br` [Compound 7, reference compound], the inhibition at 1 µM with HT1080 cells (Homo sapiens, HT-1080, concentration tested 1.0 µM) amounted to 88 ± 2%; with U2OS cells (Homo sapiens, U2OS, concentration tested 1.0 µM) it was 82 ± 2%; with U87MG cells (Homo sapiens, U-87 MG, concentration tested 1.0 µM) it was 78 ± 3%.
`COc1cc(/N=N/c2cc(S(=O)(=O)O)cc3cc(S(=O)(=O)O)cc(O)c23)c(C)cc1NC(=O)Nc1cc(C)c(/N=N/c2cc(S(=O)(=O)O)cc3cc(S(=O)(=O)O)cc(O)c23)cc1OC` [Compound 16]: the IC50 in [1] (Homo sapiens) was over 10 µM; in test [2] (Homo sapiens, U-87 MG), over 10 µM; at human GS3 heparanase (setting [5]), < 0.5 µM and 0.37 µM; in test [3] (Homo sapiens, HT-1080), over 10 µM. The inhibition at 10 µM in the test with HT1080 cells (Homo sapiens, HT-1080) is 93 ± 1%; in the test on U2OS cells (Homo sapiens, U2OS), under 0%; in the test on U87MG cells (Homo sapiens, U-87 MG) it was 10 ± 4%.
Turning to `O=C(Nc1cccc(-c2nc3ccccc3[nH]2)c1)c1ccc(Oc2ccc(C(=O)Nc3cccc(-c4nc5ccccc5[nH]4)c3)cc2)cc1` [Compound 29], the IC50 was over 10 µM in test [1] (Homo sapiens); over 10 µM in [2] (Homo sapiens, U-87 MG); < 0.5 µM and 0.38 µM at human GS3 heparanase (setting [5]); over 10 µM in test [3] (Homo sapiens, HT-1080). Further, the inhibition at 2.5 µM with HT1080 cells (Homo sapiens, HT-1080, concentration tested 2.5 µM) worked out at 29 ± 4%; in the test on U2OS cells (Homo sapiens, U2OS, concentration tested 2.5 µM) it was 18 ± 3%; in the test on U87MG cells (Homo sapiens, U-87 MG, concentration tested 2.5 µM), 15 ± 3%.
As for `O=C(O)c1ccc2c(c1)C(=O)N(c1cccc(Oc3cccc(Oc4cccc(N5C(=O)c6ccc(C(=O)O)cc6C5=O)c4)c3)c1)C2=O` [Compound 59], on human GS3 heparanase (setting [5]), the “IC50 (µM) ± SD, heparanase inhibitory activity” value is “good inhibitory potency” and the IC50 was determined as 2.08 ± 0.16 µM.
With `O=C(O)c1ccc(N2C(=O)c3ccc(Oc4cccc(Oc5ccc6c(c5)C(=O)N(c5ccc(C(=O)O)cc5)C6=O)c4)cc3C2=O)cc1` [Compound 60], the “% inhib @2.5 M ± SD” value at human GS3 heparanase (Table S1, fixed concentration 2.5 µM (2.5 M [sic])) came to 53 ± 12%. Besides, on human GS3 heparanase (Table S1, fixed concentration 25 µM (25 M [sic])), the “% inhib @25 M ± SD” value is reported as 65 ± 4%.
Turning to `O=C(Nc1ccc(-c2nc3ccccc3[nH]2)cc1)c1ccc(C(=O)Nc2ccc(-c3nc4ccccc4[nH]3)cc2)cc1` [Compound 61], the IC50 in test [1], in [2] and in test [3] was over 10 µM in each case. For the same compound, the “Invasion assay inhibition (%) HT1080” value with HT1080 cells (concentration tested 2.5 µM) turned out to be 41 ± 3%. Further, in the test on U2OS cells (concentration tested 2.5 µM), the “Invasion assay inhibition (%) U2OS” value turned out to be 80 ± 2%. For the same compound, the “effect on transcription of heparanase” value in test [4] was “not or very weakly affected”. For the same compound, the “effect on transcription of proangiogenic genes (FGF-1, FGF-2, VEGF, MMP-9)” value in test [4] is “significant inhibitory effect”. The “Invasion assay inhibition (%) U87MG” value in the test with U87MG cells (concentration tested 2.5 µM) was 43 ± 5%.
On to `O=C(O)c1ccc2c(c1)C(=O)N(c1ccc(NC(=O)c3cccc(C(=O)Nc4ccc(N5C(=O)c6ccc(C(=O)O)cc6C5=O)cc4Cl)c3)c(Cl)c1)C2=O` [Compound 63], for which the IC50 in test [1], in test [2] and in test [3] was over 10 µM each time. In the test on HT1080 cells (concentration tested 2.5 µM), the “Invasion assay inhibition (%) HT1080” value is recorded as 39 ± 6%. For the same compound, in the test with U2OS cells (concentration tested 2.5 µM), the “Invasion assay inhibition (%) U2OS” value turned out to be 75 ± 3%. In addition, the “effect on transcription of heparanase” value in test [4] is reported as “not or very weakly affected”. Further, the “effect on transcription of proangiogenic genes (FGF-1, FGF-2, VEGF, MMP-9)” value in test [4] is “significant inhibitory effect”. Moreover, the “Invasion assay inhibition (%) U87MG” value in the test on U87MG cells (concentration tested 2.5 µM) is 45 ± 4%.
With `Cc1ccc(C(=O)Nc2ccc(S(=O)(=O)O)c3cc(S(=O)(=O)O)cc(S(=O)(=O)O)c23)cc1NC(=O)c1cccc(NC(=O)Nc2cccc(C(=O)Nc3cc(C(=O)Nc4ccc(S(=O)(=O)O)c5cc(S(=O)(=O)O)cc(S(=O)(=O)O)c45)ccc3C)c2)c1` [suramin, reference compound], the IC50 in test [1] (Homo sapiens) was over 10 µM; in test [2] (Homo sapiens, U-87 MG), over 10 µM; in test [3] (Homo sapiens, HT-1080), over 10 µM. Also, the inhibition at 10 µM with HT1080 cells (Homo sapiens, HT-1080) was 22 ± 5%; in the test on U2OS cells (Homo sapiens, U2OS), under 0%; in the test with U87MG cells (Homo sapiens, U-87 MG) it was under 0%.
